Consider ten molecules from PMC3238229 (Genetics, Selection, Evolution : GSE, 2003).

Where two headings read alike, the source gives them in different places. Ends that are not written are not given here.

For experiment [1], the system named is BoLA-DRB3*2703. In kind it is binding, bovine.
For experiment [2], the system named is peptide-specific T-lymphocytes from BMC of a cow homozygous for BoLA-DRB3*2703. In kind it is cell-based, Holstein cow.
Experiment [3] relates to CD4+ and CD8+ peptide-specific T-lymphocytes from BMC of a cow homozygous for BoLA-DRB3*2703. In kind it is cell-based, Holstein cow.
The subject of experiment [4] is IFN-γ production by peptide-specific T-lymphocytes. The experiment is classed as cell-based, Holstein cow.
The target of experiment [5] is BoLA-DRB3*2703 class II molecule (bovine). Kind of experiment: competitive peptide binding to pu.
Experiment [6] has the same target. In words: binding of labelled peptide to pu.
For experiment [7] the target is unchanged.

On to QAVHAAHAEINE [OVA336], for which, in experiment [1], the “Binding affinity (designated high or low)” value (from here on “Binding affinity”) is reported as “Low”. Further, the “DNA synthesis of T-cells compared to naive cell cultures (in words)” value in experiment [2] is reported as “not significantly different”. Moreover, the “cell divisions of CD8+lo T-lymphocytes compared to the naive lymphocyte culture” value in experiment [3] is listed as “more cell divisions”. The “IFN-γ in culture supernatant compared to the naive cell culture” value in experiment [4] and in experiment [4] (18 h) was “less” throughout.
For the molecule SSAESLKISQAV [OVA327], in experiment [1], the “Binding affinity” value was “Low”. Besides, the “DNA synthesis of T-cells compared to naive cell cultures (in words)” value in experiment [2] is “significantly lower”.
Consider KISQAVHAAHA [OVA332], for which the “Binding affinity” value in experiment [1] is on record as “Low”. In addition, the IC50 in experiment [1] (read-out: concentration required to inhibit BoLA class II-self-peptide binding by 50% (IC50)) is over 640 µM. The “DNA synthesis of T-cells compared to naive cell cultures (in words)” value in experiment [2] was “not significantly different”.
The molecule ISQAVHAAHAEIN [OVA335[323-335]] displayed an IC50 in experiment [5] of 26.9 µM.
Take QAVHAAHAEINE [OVA336[325-336]]: the IC50 in experiment [5] is over 320 µM.
DVNEFRAVTPLGRPDAE (not fully specified) [Biotinylated self-peptide DQ] yielded an other in experiment [6] of 58.2 pixels.
In experiment [5], SSAESLKISQAV [OVA327[316-327]] registered an IC50 of over 320 µM.
As to ISQAVHAAHAEINEAGR [OVA339[323-339]], the IC50 in experiment [5] came out at 72.2 µM.
Take SIINNYYMQQYQNSM (not fully specified) [FMD-VP4[20-34]]: the IC50 in experiment [7] came out at 46.5 µM.
DVNEFRAVTPLGRPDAE [Self-peptide DQ (unlabelled competitor)] returned an IC50 in experiment [5] of 16.1 µM.
